Assay results as given in ChEMBL document CHEMBL4765281, “Development of a novel nitric oxide (NO) production inhibitor with potential therapeutic effect on chronic inflammation” (Eur J Med Chem, 2020).

Experiments:
RAW264.7 [1] = assay: Inhibition of LPS-induced nitric oxide production in mouse RAW264.7 cells at 10 uM measured after 24 hrs by Griess reagent based assay relative to control; assay type: functional
RAW264.7 [2] = assay: Inhibition of LPS-induced nitric oxide production in mouse RAW264.7 cells measured after 24 hrs by Griess reagent based assay; assay type: functional, cell-based; conditions: RAW264.7, 24 h
RAW264.7 [3] = assay: Cytotoxicity against mouse RAW264.7 cells assessed as reduction in cell viability measured after 24 hrs by MTT assay; assay type: cell-based; conditions: RAW264.7, 24 h
RAW264.7 [4] = assay: Inhibition of LPS-induced nitric oxide production in mouse RAW264.7 cells; assay type: functional, cell-based

SMILES: COc1cc(O)c(C(=O)/C(F)=C/c2ccc(OC)c(OC)c2)c(OC)c1
- inhibition at 10 µM (RAW264.7 [1]): 62.6%

SMILES: COc1cc(O)c(C(=O)/C=C/c2ccc(OCCCN3CCCC3)c(OC)c2)c(OC)c1
- IC50 (RAW264.7 [2]): 6.5 µM
- inhibition at 10 µM (RAW264.7 [1]): 83.1%
- IC50 (RAW264.7 [3]): > 40 µM

SMILES: COc1cccc(/C=C/C(=N\O)c2c(O)cc(OC)cc2OC)c1
- inhibition at 10 µM (RAW264.7 [1]): 46.4%

SMILES: COc1cccc(/C=C(\F)C(=O)c2c(O)cc(OC)cc2OC)c1
- inhibition at 10 µM (RAW264.7 [1]): 58.1%

SMILES: COc1cc(O)c(C(=O)/C(C)=C/c2ccc(C)cc2)c(OC)c1
- inhibition at 10 µM (RAW264.7 [1]): 56.8%

SMILES: COc1cc(O)c(C(=O)/C=C/c2ccc(OC)c(O)c2)c(OC)c1
- inhibition at 10 µM (RAW264.7 [1]): 70.6%

SMILES: CCOc1cc(OC)cc(OC)c1C(=O)/C=C/c1cccc(OC)c1
- IC50 (RAW264.7 [2]): 2.7 µM
- inhibition at 10 µM (RAW264.7 [1]): 85.6%
- IC50 (RAW264.7 [3]): 34 µM

SMILES: CC1(C)C=Cc2cc(C(=O)/C=C/c3ccc(O)cc3)c(O)cc2O1 [4-HYDROXYISOLONCHOCARPIN]
- IC50 (RAW264.7 [4]): 2.4 µM

SMILES: O=c1cc(-c2ccc(O)c(O)c2)oc2cc(O)cc(O)c12 [LUTEOLIN]
- IC50 (RAW264.7 [2]): 9.2 µM
- inhibition at 10 µM (RAW264.7 [1]): 54.6%
- IC50 (RAW264.7 [3]): > 40 µM

SMILES: COc1ccc(/C=C/C(=O)c2c(O)cc(OC)cc2OC)cc1 [FLAVOKAWAIN A]
- inhibition at 10 µM (RAW264.7 [1]): 79.5%

SMILES: COc1cc(O)c(C(=O)/C=C/c2ccc3c(c2)OCO3)c(OC)c1
- inhibition at 10 µM (RAW264.7 [1]): 70%

SMILES: COc1cccc(OC)c1C(=O)/C=C/c1ccc(N(C)C)cc1
- IC50 (RAW264.7 [4]): 0.6 µM

SMILES: COc1cc(O)c(C(=O)/C=C/c2ccc([N+](=O)[O-])cc2)c(OC)c1
- inhibition at 10 µM (RAW264.7 [1]): 35.4%

SMILES: CC1(C)C=Cc2c(ccc(C(=O)/C=C/c3ccc(O)cc3)c2O)O1
- IC50 (RAW264.7 [4]): 10.2 µM

SMILES: COc1cc(/C=C/C(=O)c2ccc(F)cc2)cc(OC)c1OC
- IC50 (RAW264.7 [4]): 0.033 µM

SMILES: COc1ccc(/C=C(\C)C(=O)c2c(O)cc(OC)cc2OC)cc1
- inhibition at 10 µM (RAW264.7 [1]): 41.6%

SMILES: COc1ccccc1C(=O)/C=C/c1ccc(Cl)c(Cl)c1
- IC50 (RAW264.7 [4]): 7.1 µM

SMILES: COc1cc(O)c(C(=O)/C=C/c2ccc(O)cc2)c(OC)c1 [FLAVOKAWAIN C]
- inhibition at 10 µM (RAW264.7 [1]): 66.8%

SMILES: COc1ccc(/C=C/C(=O)c2c(O)cc(OC)cc2OC)c(OC)c1
- inhibition at 10 µM (RAW264.7 [1]): 67.6%

SMILES: COc1ccc(OC)c(/C=C/C(=O)c2c(O)cc(OC)cc2OC)c1
- inhibition at 10 µM (RAW264.7 [1]): 73.7%

SMILES: COc1ccc(/C=C/C(=O)c2ccc(OC)cc2O)cc1
- inhibition at 10 µM (RAW264.7 [1]): 70%

SMILES: CC(C)=CCc1cc(C(=O)/C=C/c2ccc(O)c(O)c2)c(O)cc1O [BROUSSOCHALCONE A]
- IC50 (RAW264.7 [4]): 11.3 µM

SMILES: COc1cc(O)c(C(=O)/C=C/c2ccc(Br)cc2)c(OC)c1
- inhibition at 10 µM (RAW264.7 [1]): 70.2%

SMILES: COc1cc(O)c(C(=O)/C=C/c2cccnc2)c(OC)c1
- inhibition at 10 µM (RAW264.7 [1]): 78%

SMILES: COc1ccc(OC)c(/C=C(\F)C(=O)c2c(O)cc(OC)cc2OC)c1
- inhibition at 10 µM (RAW264.7 [1]): 42.6%

SMILES: COc1cc(O)c(C(=O)/C=C/c2ccc(OCCCN3CCN(C)CC3)c(OC)c2)c(OC)c1
- inhibition at 10 µM (RAW264.7 [1]): 70.4%

SMILES: COc1cc(O)c(C(=O)/C(F)=C/c2ccc(C)cc2)c(OC)c1
- inhibition at 10 µM (RAW264.7 [1]): 50.8%

SMILES: COc1cc(O)c(C(=O)/C=C/c2ccc(C)cc2)c(OC)c1
- IC50 (RAW264.7 [2]): 6.3 µM
- inhibition at 10 µM (RAW264.7 [1]): 82.1%
- IC50 (RAW264.7 [3]): > 40 µM

SMILES: COc1cc(O)c(C(=O)/C=C/c2ccc(OCCCO)cc2)c(OC)c1
- inhibition at 10 µM (RAW264.7 [1]): 78.2%
